Measurements taken from ChEMBL document CHEMBL5649169 (ChemMedChem, 2018).

Experiments:
Ephrin type-B receptor 2 = Ephrin type-B receptor 2 (Homo sapiens, UniProt P29323); experiment: Inhibition of Nano Luc-fused full length C-terminal EPHB2 (unknown origin) expressed in HEK293T cells using NanoGlo as substrate incubated for 2 hrs in presence of tracer by NanoBRET assay; format: cell-based
[1] = biological target: Actin-related protein 2 (Homo sapiens) (UniProt P61160); further: assay method not described here
[2] = biological target: Acidic leucine-rich nuclear phosphoprotein 32 family member A (Homo sapiens) (UniProt P39687); further: assay method not described here
[3] = biological target: Sodium/potassium-transporting ATPase subunit beta-1 (Homo sapiens) (UniProt P05026); further: assay method not described here
[4] = biological target: ATP synthase F(1) complex subunit delta, mitochondrial (Homo sapiens) (UniProt P30049); further: assay method not described here
[5] = biological target: Bone morphogenetic protein receptor type-1B (Homo sapiens) (UniProt O00238); further: assay method not described here
[6] = biological target: C2 domain-containing protein 5 (Homo sapiens) (UniProt Q86YS7); further: assay method not described here
[7] = biological target: Chloride intracellular channel protein 1 (Homo sapiens) (UniProt O00299); further: assay method not described here
[8] = biological target: Elongation factor 1-gamma (Homo sapiens) (UniProt P26641); further: assay method not described here
[9] = biological target: rRNA 2'-O-methyltransferase fibrillarin (Homo sapiens) (UniProt P22087); further: assay method not described here
[10] = biological target: GPI-anchor transamidase component GPAA1 (Homo sapiens) (UniProt O43292); further: assay method not described here
[11] = biological target: High mobility group protein B2 (Homo sapiens) (UniProt P26583); further: assay method not described here
[12] = biological target: Isocitrate dehydrogenase [NADP], mitochondrial (Homo sapiens) (UniProt P48735); further: assay method not described here
[13] = biological target: Importin-9 (Homo sapiens) (UniProt Q96P70); further: assay method not described here
[14] = biological target: Interleukin-1 receptor-associated kinase 3 (Homo sapiens) (UniProt Q9Y616); further: assay method not described here
[15] = biological target: Far upstream element-binding protein 2 (Homo sapiens) (UniProt Q92945); further: assay method not described here
[16] = biological target: Dolichyl-diphosphooligosaccharide--protein glycosyltransferase subunit KCP2 (Homo sapiens) (UniProt Q8N6L1); further: assay method not described here
[17] = biological target: Mitogen-activated protein kinase kinase kinase kinase 2 (Homo sapiens) (UniProt Q12851); further: assay method not described here
[18] = biological target: Mitogen-activated protein kinase 3 (Homo sapiens) (UniProt P27361); further: assay method not described here
[19] = biological target: MAP/microtubule affinity-regulating kinase 3 (Homo sapiens) (UniProt P27448); further: assay method not described here
[20] = biological target: DNA replication licensing factor MCM4 (Homo sapiens) (UniProt P33991); further: assay method not described here
[21] = biological target: DNA replication licensing factor MCM5 (Homo sapiens) (UniProt P33992); further: assay method not described here
Homo sapiens [22] = species on record: Homo sapiens; further: assay method not described here
Peflin (Homo sapiens) = Peflin (Homo sapiens) (UniProt Q9UBV8)
[23] = biological target: Protein kinase C alpha type (Homo sapiens) (UniProt P17252); further: assay method not described here
[24] = biological target: Serine/threonine-protein kinase D3 (Homo sapiens) (UniProt O94806); further: assay method not described here
[25] = biological target: Pre-mRNA-processing-splicing factor 8 (Homo sapiens) (UniProt Q6P2Q9); further: assay method not described here
[26] = biological target: Large ribosomal subunit protein eL33 (Homo sapiens) (UniProt P18077); further: assay method not described here
[27] = biological target: Small ribosomal subunit protein eS10 (Homo sapiens) (UniProt P46783); further: assay method not described here
[28] = biological target: Small ribosomal subunit protein eS19 (Homo sapiens) (UniProt P39019); further: assay method not described here
[29] = biological target: Small ribosomal subunit protein uS5 (Homo sapiens) (UniProt P15880); further: assay method not described here
[30] = biological target: Small ribosomal subunit protein uS4 (Homo sapiens) (UniProt P46781); further: assay method not described here
[31] = biological target: Ribonucleoside-diphosphate reductase large subunit (Homo sapiens) (UniProt P23921); further: assay method not described here
Homo sapiens [32] = species on record: Homo sapiens; remark: listed apart in the source; further: assay method not described here
[33] = biological target: Translocon-associated protein subunit gamma (Homo sapiens) (UniProt Q9UNL2); further: assay method not described here
Homo sapiens [34] = species on record: Homo sapiens; remark: listed apart in the source; further: assay method not described here
[35] = biological target: Succinate--CoA ligase [ADP-forming] subunit beta, mitochondrial (Homo sapiens) (UniProt Q9P2R7); further: assay method not described here
[36] = biological target: Tyrosine-protein kinase Tec (Homo sapiens) (UniProt P42680); further: assay method not described here
[37] = biological target: Dual specificity testis-specific protein kinase 2 (Homo sapiens) (UniProt Q96S53); further: assay method not described here
[38] = biological target: TRAF2 and NCK-interacting protein kinase (Homo sapiens) (UniProt Q9UKE5); further: assay method not described here
[39] = biological target: Ubiquitin-protein ligase E3C (Homo sapiens) (UniProt Q15386); further: assay method not described here
[40] = biological target: UBX domain-containing protein 1 (Homo sapiens) (UniProt Q04323); further: assay method not described here
[41] = biological target: UDP-glucose:glycoprotein glucosyltransferase 1 (Homo sapiens) (UniProt Q9NYU2); further: assay method not described here
[42] = biological target: ATP synthase F(0) complex subunit k, mitochondrial (Homo sapiens) (UniProt Q96IX5); further: assay method not described here
[43] = biological target: Ubiquitin carboxyl-terminal hydrolase 10 (Homo sapiens) (UniProt Q14694); further: assay method not described here
[44] = biological target: Synaptic vesicle membrane protein VAT-1 homolog (Homo sapiens) (UniProt Q99536); further: assay method not described here
Wherever ED50 is given: assay method not described here.

Sequence of Succinate--CoA ligase [ADP-forming] subunit beta, mitochondrial (Homo sapiens) (Q9P2R7 whole entry): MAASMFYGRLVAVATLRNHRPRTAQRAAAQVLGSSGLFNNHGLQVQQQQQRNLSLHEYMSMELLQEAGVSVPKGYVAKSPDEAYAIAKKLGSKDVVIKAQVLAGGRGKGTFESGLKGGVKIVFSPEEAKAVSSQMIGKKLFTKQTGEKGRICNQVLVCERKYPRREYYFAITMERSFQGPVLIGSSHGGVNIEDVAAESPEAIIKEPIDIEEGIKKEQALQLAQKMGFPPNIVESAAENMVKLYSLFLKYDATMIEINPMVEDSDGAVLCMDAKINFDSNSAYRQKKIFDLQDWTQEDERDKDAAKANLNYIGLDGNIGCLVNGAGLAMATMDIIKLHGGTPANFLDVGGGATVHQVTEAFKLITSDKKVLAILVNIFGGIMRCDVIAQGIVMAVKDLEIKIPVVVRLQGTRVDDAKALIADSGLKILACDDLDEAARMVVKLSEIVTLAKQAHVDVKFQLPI
Sequence of Ephrin type-B receptor 2 (P29323 whole entry, the tested form may be a part): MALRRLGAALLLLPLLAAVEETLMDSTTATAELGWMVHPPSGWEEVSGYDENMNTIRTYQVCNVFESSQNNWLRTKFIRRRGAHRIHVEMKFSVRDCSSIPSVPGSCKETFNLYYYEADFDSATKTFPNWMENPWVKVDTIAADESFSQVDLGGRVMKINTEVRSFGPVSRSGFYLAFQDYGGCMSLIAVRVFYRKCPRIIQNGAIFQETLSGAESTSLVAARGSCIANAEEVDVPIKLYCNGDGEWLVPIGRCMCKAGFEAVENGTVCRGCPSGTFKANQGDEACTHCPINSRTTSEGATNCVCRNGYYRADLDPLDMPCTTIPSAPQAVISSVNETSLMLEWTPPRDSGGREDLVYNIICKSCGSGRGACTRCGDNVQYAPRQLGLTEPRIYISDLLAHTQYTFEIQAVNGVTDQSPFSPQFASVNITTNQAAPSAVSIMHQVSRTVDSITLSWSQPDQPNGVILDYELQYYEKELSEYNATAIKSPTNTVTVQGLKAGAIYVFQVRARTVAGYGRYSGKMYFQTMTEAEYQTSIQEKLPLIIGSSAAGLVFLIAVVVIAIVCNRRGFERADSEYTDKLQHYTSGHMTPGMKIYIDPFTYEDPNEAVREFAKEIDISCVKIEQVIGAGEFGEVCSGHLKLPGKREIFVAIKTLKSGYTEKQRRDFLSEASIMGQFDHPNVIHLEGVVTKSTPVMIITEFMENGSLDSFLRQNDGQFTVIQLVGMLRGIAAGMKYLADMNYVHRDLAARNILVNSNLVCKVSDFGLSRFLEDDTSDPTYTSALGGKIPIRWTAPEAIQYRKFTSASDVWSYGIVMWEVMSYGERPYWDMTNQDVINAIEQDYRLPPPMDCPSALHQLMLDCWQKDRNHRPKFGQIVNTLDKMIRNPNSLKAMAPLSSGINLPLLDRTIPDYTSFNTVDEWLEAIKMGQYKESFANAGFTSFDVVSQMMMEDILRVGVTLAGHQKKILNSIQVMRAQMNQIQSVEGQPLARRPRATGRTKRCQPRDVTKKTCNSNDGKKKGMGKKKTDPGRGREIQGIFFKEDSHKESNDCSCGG
Sequence of Serine/threonine-protein kinase D3 (Homo sapiens) (O94806 whole entry): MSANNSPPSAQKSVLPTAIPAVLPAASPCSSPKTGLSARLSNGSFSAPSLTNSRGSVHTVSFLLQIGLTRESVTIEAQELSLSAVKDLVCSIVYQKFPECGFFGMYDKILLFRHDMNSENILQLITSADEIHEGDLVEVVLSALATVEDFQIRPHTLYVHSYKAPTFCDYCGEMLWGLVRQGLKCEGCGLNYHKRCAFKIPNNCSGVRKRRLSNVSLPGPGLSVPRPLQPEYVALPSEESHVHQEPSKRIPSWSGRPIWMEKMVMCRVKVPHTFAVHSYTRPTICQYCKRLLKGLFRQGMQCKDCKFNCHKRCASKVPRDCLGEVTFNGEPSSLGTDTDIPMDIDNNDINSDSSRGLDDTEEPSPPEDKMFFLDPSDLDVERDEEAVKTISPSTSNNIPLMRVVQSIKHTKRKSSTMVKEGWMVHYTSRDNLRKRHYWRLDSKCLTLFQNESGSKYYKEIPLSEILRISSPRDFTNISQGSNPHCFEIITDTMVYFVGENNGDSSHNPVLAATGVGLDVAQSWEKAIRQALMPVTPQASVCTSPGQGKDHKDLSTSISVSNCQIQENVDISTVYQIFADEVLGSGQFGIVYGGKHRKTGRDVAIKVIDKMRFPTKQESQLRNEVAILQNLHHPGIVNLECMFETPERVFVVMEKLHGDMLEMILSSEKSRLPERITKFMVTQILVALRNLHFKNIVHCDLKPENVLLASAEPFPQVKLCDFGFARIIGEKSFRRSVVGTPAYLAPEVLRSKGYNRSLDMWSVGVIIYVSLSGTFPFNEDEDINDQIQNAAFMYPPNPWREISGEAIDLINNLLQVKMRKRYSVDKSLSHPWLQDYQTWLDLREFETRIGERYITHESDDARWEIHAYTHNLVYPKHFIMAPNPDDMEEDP
Sequence of Synaptic vesicle membrane protein VAT-1 homolog (Homo sapiens) (Q99536 whole entry): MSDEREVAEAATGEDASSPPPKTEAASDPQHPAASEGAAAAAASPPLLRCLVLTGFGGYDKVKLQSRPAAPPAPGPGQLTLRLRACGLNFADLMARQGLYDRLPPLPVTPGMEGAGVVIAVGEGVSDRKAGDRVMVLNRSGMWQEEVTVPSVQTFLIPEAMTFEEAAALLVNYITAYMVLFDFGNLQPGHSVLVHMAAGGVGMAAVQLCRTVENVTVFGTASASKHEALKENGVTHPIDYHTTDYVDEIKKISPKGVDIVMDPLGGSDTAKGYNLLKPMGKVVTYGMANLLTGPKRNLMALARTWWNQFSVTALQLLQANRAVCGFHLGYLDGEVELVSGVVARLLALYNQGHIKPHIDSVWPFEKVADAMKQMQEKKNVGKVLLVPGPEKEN
Sequence of DNA replication licensing factor MCM4 (Homo sapiens) (P33991 whole entry): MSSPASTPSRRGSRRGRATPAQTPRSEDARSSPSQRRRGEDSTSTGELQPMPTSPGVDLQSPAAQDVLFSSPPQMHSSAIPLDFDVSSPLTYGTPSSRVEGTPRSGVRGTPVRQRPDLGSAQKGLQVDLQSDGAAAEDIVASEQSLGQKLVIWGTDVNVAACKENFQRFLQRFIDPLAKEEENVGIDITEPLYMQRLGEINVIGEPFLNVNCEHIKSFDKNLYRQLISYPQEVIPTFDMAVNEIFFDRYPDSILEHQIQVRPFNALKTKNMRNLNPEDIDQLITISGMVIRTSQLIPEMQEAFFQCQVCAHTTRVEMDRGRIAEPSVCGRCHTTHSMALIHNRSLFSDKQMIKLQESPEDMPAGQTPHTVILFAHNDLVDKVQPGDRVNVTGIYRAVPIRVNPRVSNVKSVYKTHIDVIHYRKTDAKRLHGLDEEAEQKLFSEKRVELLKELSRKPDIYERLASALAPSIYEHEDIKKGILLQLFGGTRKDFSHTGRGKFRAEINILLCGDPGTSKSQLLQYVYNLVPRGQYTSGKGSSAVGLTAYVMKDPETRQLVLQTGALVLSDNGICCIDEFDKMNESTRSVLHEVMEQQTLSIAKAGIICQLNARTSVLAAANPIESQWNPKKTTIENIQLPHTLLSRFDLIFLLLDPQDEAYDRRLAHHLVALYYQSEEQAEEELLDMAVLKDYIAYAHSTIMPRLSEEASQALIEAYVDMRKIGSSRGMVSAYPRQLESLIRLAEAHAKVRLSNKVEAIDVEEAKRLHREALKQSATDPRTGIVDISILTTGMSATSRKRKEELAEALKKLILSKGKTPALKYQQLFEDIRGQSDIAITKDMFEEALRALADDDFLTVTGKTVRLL
Sequence of ATP synthase F(1) complex subunit delta, mitochondrial (Homo sapiens) (P30049 whole entry, one chain of several): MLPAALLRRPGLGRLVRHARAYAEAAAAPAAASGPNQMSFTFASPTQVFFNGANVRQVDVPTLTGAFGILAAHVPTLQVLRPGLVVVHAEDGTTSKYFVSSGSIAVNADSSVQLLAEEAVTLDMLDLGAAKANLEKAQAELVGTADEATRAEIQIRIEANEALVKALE
Sequence of Importin-9 (Homo sapiens) (Q96P70 whole entry): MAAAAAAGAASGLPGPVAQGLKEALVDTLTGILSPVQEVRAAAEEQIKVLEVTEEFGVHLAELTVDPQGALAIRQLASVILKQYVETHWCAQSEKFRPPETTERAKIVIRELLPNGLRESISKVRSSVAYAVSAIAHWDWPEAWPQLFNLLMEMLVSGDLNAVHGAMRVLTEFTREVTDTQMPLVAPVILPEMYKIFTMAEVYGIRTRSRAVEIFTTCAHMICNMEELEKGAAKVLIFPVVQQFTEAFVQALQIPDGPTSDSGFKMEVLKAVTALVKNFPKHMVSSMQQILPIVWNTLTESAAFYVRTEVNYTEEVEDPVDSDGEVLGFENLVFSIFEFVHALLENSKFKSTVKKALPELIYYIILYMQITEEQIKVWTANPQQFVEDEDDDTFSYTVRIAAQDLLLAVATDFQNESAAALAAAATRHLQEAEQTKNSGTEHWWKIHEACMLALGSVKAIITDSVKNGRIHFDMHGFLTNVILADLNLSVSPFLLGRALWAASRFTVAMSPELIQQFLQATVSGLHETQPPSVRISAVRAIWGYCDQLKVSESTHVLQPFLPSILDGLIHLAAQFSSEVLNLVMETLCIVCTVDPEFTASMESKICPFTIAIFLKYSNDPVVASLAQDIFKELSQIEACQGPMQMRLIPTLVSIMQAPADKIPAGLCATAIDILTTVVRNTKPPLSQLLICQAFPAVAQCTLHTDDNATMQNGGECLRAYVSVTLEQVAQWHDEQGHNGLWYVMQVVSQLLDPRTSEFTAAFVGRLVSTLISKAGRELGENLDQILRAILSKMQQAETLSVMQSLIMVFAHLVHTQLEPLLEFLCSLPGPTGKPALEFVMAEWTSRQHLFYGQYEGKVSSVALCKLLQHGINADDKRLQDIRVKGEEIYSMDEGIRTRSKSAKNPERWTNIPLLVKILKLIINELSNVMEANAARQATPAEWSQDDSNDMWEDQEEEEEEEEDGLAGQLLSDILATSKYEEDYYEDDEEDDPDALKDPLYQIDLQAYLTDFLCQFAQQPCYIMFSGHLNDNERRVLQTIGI
Sequence of Dolichyl-diphosphooligosaccharide--protein glycosyltransferase subunit KCP2 (Homo sapiens) (Q8N6L1 whole entry): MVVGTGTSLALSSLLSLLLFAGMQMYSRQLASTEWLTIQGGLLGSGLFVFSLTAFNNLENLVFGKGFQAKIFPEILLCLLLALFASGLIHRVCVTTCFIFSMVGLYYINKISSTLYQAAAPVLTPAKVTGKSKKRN

## Cc1ccc(C(=O)Nc2cccc(C(F)(F)F)c2)cc1Nc1nc(-c2cccnc2)nc2c1cnn2C
Ephrin type-B receptor 2
  IC50: 0.0025 µM
[1]
  ED50: 0.174 µM
[2]
  ED50: 2.29 µM
[3]
  ED50: 0.0536 µM
[4]
  ED50: 146 µM
[5]
  ED50: 6290 µM
[6]
  ED50: 0.0177 µM
[7]
  ED50: 14.3 µM
[8]
  ED50: 0.0114 µM
[9]
  ED50: 5.44 µM
[10]
  ED50: 56.5 µM
[11]
  ED50: 11.3 µM
[12]
  ED50: 0.00187 µM
[13]
  ED50: 19.2 µM
[14]
  ED50: 1.34 µM
[15]
  ED50: 1.03 µM
[16]
  ED50: 0.164 µM
[17]
  ED50: 0.0201 µM
[18]
  ED50: 0.0457 µM
[19]
  ED50: 19.1 µM
[20]
  ED50: 73.3 µM
[21]
  ED50: 6.51 µM
Homo sapiens [22]
  ED50: 2.31 µM
Peflin (Homo sapiens)
  ED50: 6.52 µM
[23]
  ED50: 0.151 µM
[24]
  ED50: 0.0978 µM
[25]
  ED50: 93.7 µM
[26]
  ED50: 0.0388 µM
[27]
  ED50: 0.042 µM
[28]
  ED50: 0.645 µM
[29]
  ED50: 0.0804 µM
[30]
  ED50: 10.7 µM
[31]
  ED50: 1.67 µM
Homo sapiens [32]
  ED50: 1.18 µM
[33]
  ED50: 12.7 µM
Homo sapiens [34]
  ED50: 3.42 µM
[35]
  ED50: 5.03 µM
[36]
  ED50: 0.0311 µM
[37]
  ED50: 0.00136 µM
[38]
  ED50: 23.2 µM
[39]
  ED50: 0.0117 µM
[40]
  ED50: 30.7 µM
[41]
  ED50: 54.5 µM
[42]
  ED50: 128 µM
[43]
  ED50: 4.33 µM
[44]
  ED50: 7.96 µM

## Cc1ccc(C(=O)Nc2cccc(C(F)(F)F)c2)cc1Nc1nc(-c2cccnc2)nc2nn(C)cc12
Ephrin type-B receptor 2
  IC50: 0.63 µM
[1]
  ED50: 17 µM
[2]
  ED50: 12.4 µM
[3]
  ED50: 0.0335 µM
[4]
  ED50: 97.9 µM
[5]
  ED50: 60.4 µM
[6]
  ED50: 0.0663 µM
[7]
  ED50: 20.9 µM
[8]
  ED50: 0.000491 µM
[9]
  ED50: 0.0214 µM
[10]
  ED50: 0.841 µM
[11]
  ED50: 0.0527 µM
[12]
  ED50: 16.8 µM
[13]
  ED50: 0.00375 µM
[14]
  ED50: 0.0262 µM
[15]
  ED50: 4.03 µM
[16]
  ED50: 7.59 µM
[17]
  ED50: 0.0236 µM
[18]
  ED50: 2500 µM
[19]
  ED50: 0.409 µM
[20]
  ED50: 0.0763 µM
[21]
  ED50: 1560 µM
Homo sapiens [22]
  ED50: 0.716 µM
Peflin (Homo sapiens)
  ED50: 10.8 µM
[23]
  ED50: 0.00201 µM
[24]
  ED50: 1.55 µM
[25]
  ED50: 0.553 µM
[26]
  ED50: 0.0167 µM
[27]
  ED50: 0.0425 µM
[28]
  ED50: 0.199 µM
[29]
  ED50: 1.83 µM
[30]
  ED50: 0.000236 µM
[31]
  ED50: 5.74 µM
Homo sapiens [32]
  ED50: 0.131 µM
[33]
  ED50: 0.0505 µM
Homo sapiens [34]
  ED50: 0.545 µM
[35]
  ED50: 2.39 µM
[36]
  ED50: 0.0289 µM
[37]
  ED50: 0.00616 µM
[38]
  ED50: 0.0751 µM
[39]
  ED50: 0.0836 µM
[40]
  ED50: 32.9 µM
[41]
  ED50: 0.0435 µM
[42]
  ED50: 0.0812 µM
[43]
  ED50: 0.0387 µM
[44]
  ED50: 145 µM
